{
  "source": "patent US9642389B2",
  "about": "(MALAYSIAN PALM OIL BOARD, priority 2009, dated 2017)",
  "origin": "cited, not measured here",
  "key": {"mice": {"system": "mice", "conditions": "literature [16-20]"}, "Fos": {"system": "Fos", "conditions": "aged rats, literature [34]"}, "[1]": {"system": "brains of ovariectomized female rats", "conditions": "literature [33]"}},
  "data": [
    {"smiles": "Oc1ccc(C=Cc2cc(O)cc(O)c2)cc1", "note": "[resveratrol]", "values": [
      {"measurement": "performance of mice on rotarods", "setting": "mice", "value": "improve"}
    ]},
    {"smiles": "CC(C)=CCC[C@](C)(O[C@@H]1O[C@H](CO)[C@@H](O)[C@H](O)[C@H]1O)[C@H]1CC[C@]2(C)[C@@H]1[C@H](O)C[C@@H]1[C@@]3(C)CC[C@H](O)C(C)(C)[C@@H]3[C@@H](O[C@@H]3O[C@H](CO)[C@@H](O)[C@H](O)[C@H]3O)C[C@]12C", "note": "[ginsenoside Rg1]", "values": [
      {"measurement": "age-related decline of Fos in the hippocampi", "setting": "Fos", "value": "attenuated"}
    ]},
    {"smiles": "O=c1c(O)c(-c2ccc(O)c(O)c2)oc2cc(O)cc(O)c12", "note": "[quercetin]", "values": [
      {"measurement": "rate of protein synthesis in brains", "setting": "[1]", "value": "up-regulated"}
    ]}
  ]
}
